What was measured:
FLT3-ITD = target: T1, FLT3-ITD (Homo sapiens, UniProt P36888); experiment: FLT3-ITD biochemical kinase assay (AlphaScreen)
T1 construct: FLT3-ITD; Invitrogen #PV6190
T1 sequence (P36888 1-993): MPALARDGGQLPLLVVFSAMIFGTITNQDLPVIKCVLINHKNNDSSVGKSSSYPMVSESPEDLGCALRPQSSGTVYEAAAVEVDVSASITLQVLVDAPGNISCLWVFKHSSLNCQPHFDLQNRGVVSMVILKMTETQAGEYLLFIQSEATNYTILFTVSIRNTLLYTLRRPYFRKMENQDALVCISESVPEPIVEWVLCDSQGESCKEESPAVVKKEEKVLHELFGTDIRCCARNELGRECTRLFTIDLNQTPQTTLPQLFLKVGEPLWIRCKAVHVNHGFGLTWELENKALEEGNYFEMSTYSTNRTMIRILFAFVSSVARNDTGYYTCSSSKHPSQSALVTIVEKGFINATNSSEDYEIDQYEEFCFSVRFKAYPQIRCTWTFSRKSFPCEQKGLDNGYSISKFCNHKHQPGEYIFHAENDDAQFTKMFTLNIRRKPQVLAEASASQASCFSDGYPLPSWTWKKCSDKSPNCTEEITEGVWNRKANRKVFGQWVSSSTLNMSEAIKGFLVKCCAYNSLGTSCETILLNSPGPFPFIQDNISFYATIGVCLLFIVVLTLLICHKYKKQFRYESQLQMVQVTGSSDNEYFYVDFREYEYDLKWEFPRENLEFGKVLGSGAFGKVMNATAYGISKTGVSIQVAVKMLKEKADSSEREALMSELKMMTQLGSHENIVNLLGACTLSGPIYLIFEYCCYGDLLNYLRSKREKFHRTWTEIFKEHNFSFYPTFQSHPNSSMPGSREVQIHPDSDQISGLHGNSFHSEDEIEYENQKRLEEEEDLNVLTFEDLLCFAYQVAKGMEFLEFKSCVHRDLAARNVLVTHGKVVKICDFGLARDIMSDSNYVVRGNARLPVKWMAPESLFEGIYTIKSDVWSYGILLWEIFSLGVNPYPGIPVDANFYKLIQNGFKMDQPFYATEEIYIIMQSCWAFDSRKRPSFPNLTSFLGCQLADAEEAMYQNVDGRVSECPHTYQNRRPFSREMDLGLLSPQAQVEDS
In short: (§1)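 Recombinant FLT3 mutant kinases phosphorylate biotin-poly(Glu4-Tyr) peptide (30 nM) at 10 μM ATP for D835Y or 100 μM for ITD. Phosphorylation detected by AlphaScreen: streptavidin donor beads (20 min) then anti-phosphotyrosine PY20 acceptor beads (60 min, RT), signal at 580 nm; inhibition lowers signal.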

FLT3-D835Y = target: T2, FLT3-D835Y (Homo sapiens, UniProt P36888, D835Y); experiment: FLT3-D835Y biochemical kinase assay (AlphaScreen)
T2 construct: purchased Invitrogen PV3967
T2 sequence (P36888 27-993 D835Y): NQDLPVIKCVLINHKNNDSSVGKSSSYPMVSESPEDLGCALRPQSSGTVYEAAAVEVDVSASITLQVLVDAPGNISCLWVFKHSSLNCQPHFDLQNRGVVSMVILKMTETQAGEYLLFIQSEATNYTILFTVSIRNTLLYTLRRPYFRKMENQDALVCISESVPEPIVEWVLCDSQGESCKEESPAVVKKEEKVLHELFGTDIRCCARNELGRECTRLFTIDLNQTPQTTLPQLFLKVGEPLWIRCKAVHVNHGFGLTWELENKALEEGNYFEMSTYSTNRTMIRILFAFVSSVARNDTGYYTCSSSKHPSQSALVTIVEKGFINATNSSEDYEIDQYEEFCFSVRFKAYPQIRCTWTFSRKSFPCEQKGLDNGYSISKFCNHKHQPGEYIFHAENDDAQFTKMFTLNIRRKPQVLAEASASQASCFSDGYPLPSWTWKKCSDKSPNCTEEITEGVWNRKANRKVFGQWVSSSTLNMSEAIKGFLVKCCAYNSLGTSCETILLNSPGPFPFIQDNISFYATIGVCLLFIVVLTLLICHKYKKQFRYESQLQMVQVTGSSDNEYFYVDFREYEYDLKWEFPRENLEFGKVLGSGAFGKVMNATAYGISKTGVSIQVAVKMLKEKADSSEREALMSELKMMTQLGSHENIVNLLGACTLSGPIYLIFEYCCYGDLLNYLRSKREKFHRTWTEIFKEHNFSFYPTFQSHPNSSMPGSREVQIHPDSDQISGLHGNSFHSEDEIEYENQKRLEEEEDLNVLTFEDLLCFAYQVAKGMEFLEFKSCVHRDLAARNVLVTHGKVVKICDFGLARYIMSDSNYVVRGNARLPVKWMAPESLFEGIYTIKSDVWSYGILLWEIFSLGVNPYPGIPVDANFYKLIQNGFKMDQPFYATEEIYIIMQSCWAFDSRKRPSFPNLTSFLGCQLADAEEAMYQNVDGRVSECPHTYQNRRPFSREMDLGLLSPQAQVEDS
In short: as §1

IC50 (FLT3-ITD) [µM]	IC50 (FLT3-D835Y) [µM]	SMILES
0.0001 to 1	0.0001 to 1	CC(C)n1cnc2ccc(-c3c[nH]c4ncc(-c5cccc(NS(C)(=O)=O)c5)nc34)cc21 [P-080, N-[3-[7-(3-isopropylbenzimidazol-5-yl)-5H-pyrrolo[2,3-b]pyrazin-2-yl]phenyl]methanesulfonamide]
0.0001 to 1	0.0001 to 1	CC(C)(C)n1cnc2ccc(-c3c[nH]c4ncc(-c5ccnc(C6CC6)c5)nc34)cc21 [P-351, 7-(3-tert-butylbenzimidazol-5-yl)-2-(2-cyclopropyl-4-pyridyl)-5H-pyrrolo[2,3-b]pyrazine]
0.0001 to 1	0.0001 to 1	Fc1ccc(-n2cnc3ccc(-c4c[nH]c5ncc(-c6cccc(OC(F)(F)F)c6)nc45)cc32)cc1 [P-192, 7-[3-(4-fluorophenyl)benzimidazol-5-yl]-2-[3-(trifluoromethoxy)phenyl]-5H-pyrrolo[2,3-b]pyrazine]
0.0001 to 1	0.0001 to 1	O=C(NC1CC1)c1cccc(-c2cnc3[nH]cc(-c4ccc5ncsc5c4)c3n2)c1 [P-162, 3-[7-(1,3-benzothiazol-6-yl)-5H-pyrrolo[2,3-b]pyrazin-2-yl]-N-cyclopropyl-benzamide]
0.0001 to 1	0.0001 to 1	Cn1cnc2ccc(-c3c[nH]c4ncc(-c5cccc(N6CCCS6(=O)=O)c5)nc34)cc21 [P-153, 2-[3-[7-(3-methylbenzimidazol-5-yl)-5H-pyrrolo[2,3-b]pyrazin-2-yl]phenyl]-1,2-thiazolidine 1,1-dioxide]
0.0001 to 1	0.0001 to 1	CC(C)(C)n1cnc2ccc(-c3c[nH]c4ncc(-c5ccc(C#N)c(N6CCCC6)c5)nc34)cc21 [P-335, 4-[7-(3-tert-butylbenzimidazol-5-yl)-5H-pyrrolo[2,3-b]pyrazin-2-yl]-2-pyrrolidin-1-yl-benzonitrile]
0.0001 to 1	0.0001 to 1	CC(C)(C)n1cnc2ccc(-c3c[nH]c4ncc(-c5cnc(C6CC6)nc5)nc34)cc21 [P-342, 7-(3-tert-butylbenzimidazol-5-yl)-2-(2-cyclopropylpyrimidin-5-yl)-5H-pyrrolo[2,3-b]pyrazine]
0.0001 to 1	0.0001 to 1	CC(C)(C)n1cnc2ccc(-c3c[nH]c4ncc(C#Cc5ccccc5)nc34)cc21 [P-142, 7-(3-tert-butylbenzimidazol-5-yl)-2-(2-phenylethynyl)-5H-pyrrolo[2,3-b]pyrazine]
0.0001 to 1	0.0001 to 1	c1cc(-c2cnc3[nH]cc(-c4ccc5ncsc5c4)c3n2)cc(N2CCOCC2)c1 [P-163, 4-[3-[7-(1,3-benzothiazol-6-yl)-5H-pyrrolo[2,3-b]pyrazin-2-yl]phenyl]morpholine]
0.0001 to 1	0.0001 to 1	COc1cc(-c2cnc3[nH]cc(-c4ccc5ncn(C(C)(C)C)c5c4)c3c2)cc(OC)n1 [P-196, 1-tert-butyl-6-[5-(2,6-dimethoxy-4-pyridyl)-1H-pyrrolo[2,3-b]pyridin-3-yl]benzimidazole]
0.0001 to 1	0.0001 to 1	COc1cc(-c2cnc3[nH]cc(-c4ccc5ncn(C(C)(C)C)c5c4)c3n2)cc(OC)n1 [P-194, 7-(3-tert-butylbenzimidazol-5-yl)-2-(2,6-dimethoxy-4-pyridyl)-5H-pyrrolo[2,3-b]pyrazine]
0.0001 to 1	0.0001 to 1	CC(C)N1CCOc2ccc(-c3c[nH]c4ncc(C5=CCN(C(=O)C6CC6)C5)nc34)cc21 [P-189, cyclopropyl-[3-[7-(4-isopropyl-2,3-dihydro-1,4-benzoxazin-6-yl)-5H-pyrrolo[2,3-b]pyrazin-2-yl]-2,5-dihydropyrrol-1-yl]methanone]
0.0001 to 1	0.0001 to 1	Fc1ccc(-n2cnc3ccc(-c4c[nH]c5ncc(-c6cccc(OC(F)(F)F)c6)cc45)cc32)cc1 [P-204, 1-(4-fluorophenyl)-6-[5-[3-(trifluoromethoxy)phenyl]-1H-pyrrolo[2,3-b]pyridin-3-yl]benzimidazole]
0.0001 to 1	0.0001 to 1	COc1cc(-c2cnc3[nH]cc(-c4ccc5ncn(C(C)(C)C)c5c4)c3n2)ccc1C#N [P-354, 4-[7-(3-tert-butylbenzimidazol-5-yl)-5H-pyrrolo[2,3-b]pyrazin-2-yl]-2-methoxy-benzonitrile]
0.0001 to 1	0.0001 to 1	CC(C)(C)n1cnc2ccc(-c3c[nH]c4ncc(-c5cnc(NC6CC6)nc5)nc34)cc21 [P-362, 5-[7-(3-tert-butylbenzimidazol-5-yl)-5H-pyrrolo[2,3-b]pyrazin-2-yl]-N-cyclopropyl-pyrimidin-2-amine]
0.0001 to 1	1 to 10	CC(C)(C)n1cnc2ccc(-c3c[nH]c4ncc(NS(=O)(=O)c5cccc(OC(F)(F)F)c5)cc34)cc21 [P-213, N-[3-(3-tert-butylbenzimidazol-5-yl)-1H-pyrrolo[2,3-b]pyridin-5-yl]-3-(trifluoromethoxy)benzenesulfonamide]
0.0001 to 1	0.0001 to 1	N#Cc1cccc(-c2cnc3[nH]cc(-c4ccc5ncn(C6CCCNC6)c5c4)c3c2)c1 (stereo not drawn) [P-200, 3-[3-[3-(3-piperidyl)benzimidazol-5-yl]-1H-pyrrolo[2,3-b]pyridin-5-yl]benzonitrile]
0.0001 to 1	0.0001 to 1	CCS(=O)(=O)Nc1cccc(-c2cnc3[nH]cc(-c4ccc5ncsc5c4)c3n2)c1 [P-169, N-[3-[7-(1,3-benzothiazol-6-yl)-5H-pyrrolo[2,3-b]pyrazin-2-yl]phenyl]ethanesulfonamide]
0.0001 to 1	0.0001 to 1	CCCS(=O)(=O)Nc1cccc(-c2cnc3[nH]cc(-c4ccc5ncn(C)c5c4)c3n2)c1 [P-155, N-[3-[7-(3-methylbenzimidazol-5-yl)-5H-pyrrolo[2,3-b]pyrazin-2-yl]phenyl]propane-1-sulfonamide]
0.0001 to 1	0.0001 to 1	Cn1cnc2ccc(-c3c[nH]c4ncc(-c5cccc(C#N)c5)nc34)cc21 [P-146, 3-[7-(3-methylbenzimidazol-5-yl)-5H-pyrrolo[2,3-b]pyrazin-2-yl]benzonitrile]
0.0001 to 1	0.0001 to 1	Cn1cnc2ccc(-c3c[nH]c4ncc(C#Cc5ccccc5)cc34)cc21 [P-139, 1-methyl-6-[5-(2-phenylethynyl)-1H-pyrrolo[2,3-b]pyridin-3-yl]benzimidazole]
0.0001 to 1	0.0001 to 1	COc1cc(-c2cnc3[nH]cc(-c4ccc5ncn(C6CCCNC6)c5c4)c3c2)cc(OC)n1 (stereo not drawn) [P-197, 5-(2,6-dimethoxy-4-pyridyl)-3-[3-(3-piperidyl)benzimidazol-5-yl]-1H-pyrrolo[2,3-b]pyridine]
1 to 10	0.0001 to 1	COc1cc(-c2cnc3[nH]cc(-c4ccc5ncsc5c4)c3n2)ccc1Cl [P-161, 6-[2-(4-chloro-3-methoxy-phenyl)-5H-pyrrolo[2,3-b]pyrazin-7-yl]-1,3-benzothiazole]
0.0001 to 1	0.0001 to 1	CC(C)(C)n1cnc2ccc(-c3c[nH]c4ncc(-c5ccc(F)c(C#N)c5)cc34)cc21 [P-207, 5-[3-(3-tert-butylbenzimidazol-5-yl)-1H-pyrrolo[2,3-b]pyridin-5-yl]-2-fluoro-benzonitrile]
